# Activity calls are given as the source filed them. The calls are words filed in the database; no cut-off is given here.
# How the values were obtained:
# [1] = Drug concentration in Sprague-Dawley rat plasma at 1 mg/kg, iv measured after 15 mins by LC-MS/MS analysis; assay type: ADME, organism-based
# [2] = Drug concentration in Sprague-Dawley rat brain at 1 mg/kg, iv measured after 45 mins by LC-MS/MS analysis; assay type: ADME, organism-based; conditions: read-out: Ct
# [3] = Drug concentration in Sprague-Dawley rat plasma at 1 mg/kg, iv measured after 75 mins by LC-MS/MS analysis; assay type: ADME, organism-based
# [4] = Drug concentration in Sprague-Dawley rat brain at 1 mg/kg, iv measured after 75 mins by LC-MS/MS analysis; assay type: ADME, organism-based; conditions: read-out: Ct
# [5] = AUC (0 to t) in Sprague-Dawley rat at 5 mg/kg, po measured for 24 hrs by LC-MS/MS analysis; assay type: ADME, organism-based; design: time 24 hrs, dose 5 mg/kg, route po; conditions: in vivo; for AUC(0-t) at 24 h: Sprague-Dawley
# [6] = Ratio of drug concentration in Sprague-Dawley rat brain to plasma at 1 mg/kg, iv measured after 75 mins by LC-MS/MS analysis; assay type: ADME, organism-based; conditions: brain and plasma, read-out: BPR
# [7] = In vivo antagonist activity at 5-HT6R in Sprague-Dawley rat assessed as increase in intracerebral hippocampal acetylcholine level at 5 mg/kg, ip pretreated for 30 mins followed by donepezil addition and measured every 20 mins for 360 mins by LC-MS/MS analysis relative to control; assay type: functional; design: scale not given: the % may be the effect or the level left; conditions: time 390 min, 6.5 h
# [8] = AUC (0 to t) in Sprague-Dawley rat at 2 mg/kg, iv measured for 24 hrs by LC-MS/MS analysis; assay type: ADME, organism-based; design: dose 2 mg/kg, time 24 hrs, route iv; conditions: in vivo; for AUC(0-t) at 24 h: Sprague-Dawley
# Mus musculus = experiment: Cognitive enhancing effect in C57BL/6J mouse model of scopolamine-induced memory deficit assessed as reduction in incubation period of mouse entering into dark compartment at 10 mg/kg, ip pretreated for 30 mins followed by scopolamine addition and measured after 30 mins by step-through passive avoidance test; assay type: functional, organism-based; conditions: time 1.0 hrs
# [9] = In vivo antagonist activity at 5-HT6R in Sprague-Dawley rat assessed as increase in intracerebral hippocampal acetylcholine level at 1.5 mg/kg, ip pretreated for 30 mins followed by donepezil addition and measured every 20 mins for 360 mins by LC-MS/MS analysis relative to control; assay type: functional; design: scale not given: the % may be the effect or the level left; conditions: time 390 min, 6.5 h
# [10] = Ratio of drug concentration in Sprague-Dawley rat brain to plasma at 1 mg/kg, iv measured after 45 mins by LC-MS/MS analysis; assay type: ADME, organism-based; conditions: brain and plasma, read-out: BPR
# [11] = Cmax in Sprague-Dawley rat at 2 mg/kg, iv measured for 24 hrs by LC-MS/MS analysis; assay type: ADME, organism-based; design: time 24 hrs, dose 2 mg/kg, route iv; conditions: in vivo
# Rattus norvegicus = experiment: Cognitive enhancing effect in Wistar rat model of scopolamine-induced cognitive impairment assessed as rescue of loss of preference for new object at 3 to 5 mg/kg, ip administered as single dose for 30 mins followed by scopolamine addition and measured after 30 mins by Novel object recognition assay; assay type: functional, organism-based; conditions: dose 3-5 mg/kg, time 1.0 hrs
# [12] = Half life in Sprague-Dawley rat at 2 mg/kg, iv measured for 24 hrs by LC-MS/MS analysis; assay type: ADME, organism-based; conditions: in vivo
# [13] = Drug concentration in Sprague-Dawley rat plasma at 1 mg/kg, iv measured after 45 mins by LC-MS/MS analysis; assay type: ADME, organism-based
# [14] = Clearance in Sprague-Dawley rat at 2 mg/kg, iv measured for 24 hrs by LC-MS/MS analysis; assay type: ADME, organism-based; conditions: in vivo
# [15] = Volume of distribution at steady state in Sprague-Dawley rat at 2 mg/kg, iv measured for 24 hrs by LC-MS/MS analysis; assay type: ADME, organism-based; conditions: in vivo, read-out: Vdss
# [16] = Oral bioavailability in Sprague-Dawley rat at 5 mg/kg measured for 24 hrs by LC-MS/MS analysis; assay type: ADME, organism-based; conditions: in vivo; for bioavailability: Sprague-Dawley
# [17] = Ratio of drug concentration in Sprague-Dawley rat brain to plasma at 1 mg/kg, iv measured after 15 mins by LC-MS/MS analysis; assay type: ADME, organism-based; conditions: brain and plasma, read-out: BPR
# [18] = Drug concentration in Sprague-Dawley rat brain at 1 mg/kg, iv measured after 15 mins by LC-MS/MS analysis; assay type: ADME, organism-based; conditions: read-out: Ct
# [19] = Cmax in Sprague-Dawley rat at 5 mg/kg, po measured for 24 hrs by LC-MS/MS analysis; assay type: ADME, organism-based; design: time 24 hrs, dose 5 mg/kg, route po; conditions: in vivo
# [20] = Half life in Sprague-Dawley rat at 5 mg/kg, po measured for 24 hrs by LC-MS/MS analysis; assay type: ADME, organism-based; conditions: in vivo
# [21] = target: 5-hydroxytryptamine receptor 6 (Homo sapiens, UniProt P50406); experiment: Displacement of [3H]-LSD from human 5HT6 receptor expressed in CHO cells assessed as inhibition constant incubated for 120 mins by liquid scintillation counting analysis; assay type: cell-based
# Chain of 5-hydroxytryptamine receptor 6 (P50406 whole entry): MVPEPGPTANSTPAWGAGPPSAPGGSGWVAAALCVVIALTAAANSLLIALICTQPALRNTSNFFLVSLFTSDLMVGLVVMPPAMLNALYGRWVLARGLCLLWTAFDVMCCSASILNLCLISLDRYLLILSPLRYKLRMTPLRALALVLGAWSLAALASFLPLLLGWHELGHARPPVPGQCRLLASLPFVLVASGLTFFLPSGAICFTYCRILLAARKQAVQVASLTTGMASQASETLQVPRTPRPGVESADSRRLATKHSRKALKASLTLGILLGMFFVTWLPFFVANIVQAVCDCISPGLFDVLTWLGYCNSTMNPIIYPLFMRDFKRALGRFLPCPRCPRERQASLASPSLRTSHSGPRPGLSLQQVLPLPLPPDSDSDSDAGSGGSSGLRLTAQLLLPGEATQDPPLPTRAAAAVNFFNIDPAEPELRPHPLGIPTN
SMILES,concentration at 0.25 h [1] [ng/mL],concentration at 0.75 h [2] [ng/g],concentration at 1.25 h [3] [ng/mL],concentration at 1.25 h [4] [ng/g],AUC(0-t) at 24 h [5] [ng·h/mL],Kp at 1.25 h [6],AUC(0-t) at 24 h [8] [ng·h/mL],Kp at 0.75 h [10],Cmax [11] [ng/mL],half-life [12] [h],concentration at 0.75 h [13] [ng/mL],clearance [14] [mL/min/kg],Vd [15] [L/kg],bioavailability [16] [%],Kp at 0.25 h [17],concentration at 0.25 h [18] [ng/g],Cmax [19] [ng/mL],half-life [20] [h],other results
Cc1cn(S(=O)(=O)c2cccc(F)c2)c2cccc(N3CCNCC3)c12,,,,,,,,,159,1.4,,63,6.7,,,,3.61,,"Ki [21]: 0.51 nM; AUCt ([5]; 24 h): 9.37 ng·h/mL; AUCt ([8]; 24 h): 254 ng·h/mL; F ([16]; po, 5 mg/kg, 24 h): 5.95%"
O=S(=O)(c1ccccc1F)n1cc(C(F)F)c2c(N3CCNCC3)cccc21,,,,,132,,272,,112,2.54,,108,24,18.5,,,33.6,1.98,
O=S(=O)(c1ccccc1Cl)n1cc(C(F)F)c2c(N3CCNCC3)cccc21,,,,,162,,242,,120,2.55,,123,25.8,29.5,,,33.6,3.01,

# Further lines, with some results ahead:
concentration at 0.25 h [1] [ng/mL],concentration at 0.75 h [2] [ng/g],concentration at 1.25 h [3] [ng/mL],concentration at 1.25 h [4] [ng/g],AUC(0-t) at 24 h [5] [ng·h/mL],Kp at 1.25 h [6],AUC(0-t) at 24 h [8] [ng·h/mL],Kp at 0.75 h [10],Cmax [11] [ng/mL],half-life [12] [h],concentration at 0.75 h [13] [ng/mL],clearance [14] [mL/min/kg],Vd [15] [L/kg],bioavailability [16] [%],Kp at 0.25 h [17],concentration at 0.25 h [18] [ng/g],Cmax [19] [ng/mL],half-life [20] [h],SMILES,other results
58.1,187,20.8,128,267,6.16,323,6.17,140,2.28,30.3,93.4,18.8,34.4,4.81,279,51.8,4.33,O=S(=O)(c1cccc(F)c1)n1cc(C(F)F)c2c(N3CCNCC3)cccc21,Activity [7]: 287%; Activity (Mus musculus): Active; Activity [9]: 235%; Activity (Rattus norvegicus): Active
434,302,69.6,224,348,3.21,306,2.37,200,4.46,127,82.8,26.6,37,0.94,406,44.1,4.39,O=S(=O)(c1cccc(Cl)c1)n1cc(C(F)F)c2c(N3CCNCC3)cccc21,

# Reference: ChEMBL document CHEMBL5107995, “Novel difluoromethylated 1-(phenylsulfonyl)-4-(piperazin-1-yl)-1H-indole derivatives as potent 5-HT6 receptor antagonist with AMDE-improving properties: Design, synthesis, and biological evaluation” (Bioorg Med Chem, 2022)
